Where two headings read alike, the source gives them in different places.
Tests used:
TYK2 JH2 = target: T1, TYK2 JH2 (Homo sapiens, UniProt P29597); assay: TYK2 JH2 binding assay (KINOMEscan KdELECT competitive binding); conditions: TYK2 JH2 domain
T1 construct: purchased DiscoverX (KINOMEscan KdELECT service); host or cells: E. coli BL21-derived (T7 phage display) or HEK-293
Procedure, shortened: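 Test compounds were titrated in 11 three-fold steps against JH2 fragment captured on ligand-loaded magnetic beads, with 1 h incubation at room temperature and DMSO at 0.9%. Eluted kinase was quantified by qPCR, and Kd was fitted from the dose series.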

[1] = system: JAK1/TYK2 pSTAT5 (Tyr694/699) in THP-1 cell line; assay: IFNa-stimulated JAK1/TYK2 pSTAT5 (Tyr694/699) inhibition cellular assay, AlphaLISA; assay type: cell-based; conditions: THP-1 cells, AlphaLISA (Assay B)
Procedure, shortened: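 pSTAT5 (Tyr694/699) in lysates quantified by AlphaLISA (615 nm) after 30 min IFNa stimulation (100 ng/mL stock) of THP-1 cells. The cells, 2e4 per well in HBSS, had first been exposed 1 h at 37° C. to eight 6-fold compound dilutions, 10000 down to 0.04 nM final. IC50 fitted by 4PL regression, bottom 0, Hill slope −1.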

[2] = KINOMEscan KdELECT (Assay A), read-out: Biochemical TYK2_DiscoverX_JH2_BND_Kd
[3] = Homo sapiens, IFNa-stimulated, read-out: Cellular_THP1_IFNa-pSTATS_TYK2
[4] = DiscoverX KINOMEscan KdELECT (Assay A), read-out: Biochemical TYK2_DiscoverX_JH2_BND_Kd
[5] = KINOMEscan KdELECT (Assay A), read-out: Biochemical TYK2_JH2_Kd
[6] = Homo sapiens, IFNa-stimulated, read-out: Cellular THP1_IFNa-pSTATS_IC50

T1 sequence (P29597 589-875 limits assumed): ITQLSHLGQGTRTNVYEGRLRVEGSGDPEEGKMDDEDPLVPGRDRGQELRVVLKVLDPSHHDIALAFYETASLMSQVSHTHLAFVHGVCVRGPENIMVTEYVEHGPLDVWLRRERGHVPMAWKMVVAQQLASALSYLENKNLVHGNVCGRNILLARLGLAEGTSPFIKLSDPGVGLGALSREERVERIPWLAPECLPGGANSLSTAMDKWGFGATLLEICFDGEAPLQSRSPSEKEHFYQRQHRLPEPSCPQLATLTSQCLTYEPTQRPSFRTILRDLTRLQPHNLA

Kd (TYK2 JH2; [2])	IC50 [1, 3]	Kd (TYK2 JH2; [4])	Kd (TYK2 JH2; [5])	IC50 [1, 6]	further results	Compound
≤ 100 nM	> 500 nM					C=C(c1ccc(OCC(C)(C)O)cc1)c1cnc(NC)c2cnc(NC(=O)C3CC3)cc12 [Example 785, N-(5-(1-(4-(2-hydroxy-2-methylpropoxy)phenyl)vinyl)-8-(methylamino)-2,7-naphthyridin-3-yl)cyclopropanecarboxamide]
	≤ 500 nM	≤ 100 nM				CNc1ncc(-c2nc3cc(OCC(C)(C)C#N)ccc3o2)c2cc(NC(=O)C3CC3)ncc12 [Example 236, N-(5-(5-(2-cyano-2-methylpropoxy)benzo[d]oxazol-2-yl)-8-(methylamino)-2,7-naphthyridin-3-yl)cyclopropanecarboxamide]
			≤ 100 nM	> 500 nM		CNc1ncc(C2CCCOC2)c2cc(NC(=O)C3CC3)ncc12 (stereo not drawn) [Example 78, N-(8-(methylamino)-5-(tetrahydro-2H-pyran-3-yl)-2,7-naphthyridin-3-yl)cyclopropanecarboxamide]
			≤ 100 nM	≤ 500 nM		CNc1ncc(-c2nc3ccc(F)cc3o2)c2cc(NC(=O)C3CC3)ncc12 [Example 179, N-(5-(6-fluorobenzo[d]oxazol-2-yl)-8-(methylamino)-2,7-naphthyridin-3-yl)cyclopropanecarboxamide]
≤ 100 nM	≤ 500 nM					CNc1ncc(C#Cc2ccc(N3CC4CN(C)CC(C3)O4)cc2)c2cc(NC(=O)C3CC3)ncc12 [Example 734, N-(5-((4-(7-methyl-9-oxa-3,7-diazabicyclo[3.3.1]nonan-3-yl)phenyl)ethynyl)-8-(methylamino)-2,7-naphthyridin-3-yl)cyclopropanecarboxamide]
			≤ 100 nM	≤ 500 nM		CNc1ncc(-c2cc3ccccc3o2)c2cc(NC(=O)C3CC3)ncc12 [Example 114, N-(5-(benzofuran-2-yl)-8-(methylamino)-2,7-naphthyridin-3-yl)cyclopropanecarboxamide]
≤ 100 nM	≤ 500 nM					CNc1ncc(C#Cc2ccc(F)cn2)c2cc(NC(=O)C3CC3)ncc12 [Example 980, N-[5-[2-(5-fluoro-2-pyridyl)ethynyl]-8-(methylamino)-2,7-naphthyridin-3-yl]cyclopropanecarboxamide]
	≤ 500 nM	≤ 100 nM				CCOCCc1cccc2nc(-c3cnc(NC)c4cnc(NC(=O)C5CC5)cc34)nn12 [Example 507, N-(5-(5-(2-ethoxyethyl)-[1,2,4]triazolo[1,5-a]pyridin-2-yl)-8-(methylamino)-2,7-naphthyridin-3-yl)cyclopropanecarboxamide]
			100 to 1000 nM	> 500 nM		CNc1ncc(-c2ccccc2)c2cc(NCC(F)(F)F)ncc12 [Example 94, N^1-methyl-4-phenyl-N^6-(2,2,2-trifluoroethyl)-2,7-naphthyridine-1,6-diamine]
			≤ 100 nM	≤ 500 nM		CNc1ncc(-c2nc3ccccc3o2)c2cc(NC(=O)C3CC3)ncc12 [Example 142, N-(5-(benzo[d]oxazol-2-yl)-8-(methylamino)-2,7-naphthyridin-3-yl)cyclopropanecarboxamide]
	≤ 500 nM	≤ 100 nM				CNc1ncc(-c2nc3cc(OC)ccc3o2)c2cc(NC(=O)[C@H]3C[C@H]3CO)ncc12 (single isomer, unassigned) [Example 467]
			≤ 100 nM	> 500 nM		CNc1ncc(C2CCOCC2)c2cc(NC(=O)C3CC3)ncc12 [Example 68, N-(8-(methylamino)-5-(tetrahydro-2H-pyran-4-yl)-2,7-naphthyridin-3-yl)cyclopropanecarboxamide]
	≤ 500 nM	≤ 100 nM				CNc1ncc(-c2nc3ccc(N4C[C@H]5C[C@@H]4CO5)cn3n2)c2cc(NC(=O)C3CC3)ncc12 [Example 489, N-(5-(6-((1R,4R)-2-oxa-5-azabicyclo[2.2.1]heptan-5-yl)-[1,2,4]triazolo[1,5-a]pyridin-2-yl)-8-(methylamino)-2,7-naphthyridin-3-yl)cyclopropanecarboxamide]
≤ 100 nM	≤ 500 nM					CNc1ncc(C#Cc2ccc(CC(F)(F)F)cn2)c2cc(NC(=O)C3CC3)ncc12 [Example 660, N-(8-(methylamino)-5-((5-(2,2,2-trifluoroethyl)pyridin-2-yl)ethynyl)-2,7-naphthyridin-3-yl)cyclopropanecarboxamide]
			≤ 100 nM	> 500 nM		CNc1ncc(-c2ccn(Cc3ccccn3)n2)c2cc(NC(=O)C3CC3)ncc12 [Example 154, N-(8-(methylamino)-5-(1-(pyridin-2-ylmethyl)-1H-pyrazol-3-yl)-2,7-naphthyridin-3-yl)cyclopropanecarboxamide]
≤ 100 nM					IC50 ([1]; Homo sapiens, IFNa-stimulated pSTAT5 (Tyr694/699), read-out: Cellular_THP1_IFNa-pSTATS_TYK2): ≤ 500 nM	CNc1ncc(C#Cc2nc3ccccc3s2)c2cc(NC(=O)C3CC3)ncc12 [Example 1020, N-(5-(benzo[d]thiazol-2-ylethynyl)-8-(methylamino)-2,7-naphthyridin-3-yl)cyclopropanecarboxamide]
	≤ 500 nM	≤ 100 nM				CNc1ncc(-c2nc3cc(OC4CN(C5CCOC5)C4)ccc3o2)c2cc(NC(=O)C3CC3)ncc12 (stereo not drawn) [Example 251, N-(8-(methylamino)-5-(5-((1-(tetrahydrofuran-3-yl)azetidin-3-yl)oxy)benzo[d]oxazol-2-yl)-2,7-naphthyridin-3-yl)cyclopropanecarboxamide]
≤ 100 nM	≤ 500 nM					CNc1ncc(C#Cc2ccc3c(c2)CCNC3)c2cc(NC(=O)C3CC3)ncc12 [Example 956, N-(8-(methylamino)-5-((1,2,3,4-tetrahydroisoquinolin-6-yl)ethynyl)-2,7-naphthyridin-3-yl)cyclopropanecarboxamide]
≤ 100 nM	> 500 nM					CNc1ncc(C2=CCC(c3ncn(C)n3)C2)c2cc(NC(=O)C3CC3)ncc12 (stereo not drawn) [Example 834, N-(5-(4-(1-methyl-1H-1,2,4-triazol-3-yl)cyclopent-1-en-1-yl)-8-(methylamino)-2,7-naphthyridin-3-yl)cyclopropanecarboxamide]
	≤ 500 nM	≤ 100 nM				CNc1ncc(-c2nc3cccc(C)c3o2)c2cc(NC(=O)C3CC3)ncc12 [Example 205, N-(8-(methylamino)-5-(7-methylbenzo[d]oxazol-2-yl)-2,7-naphthyridin-3-yl)cyclopropanecarboxamide]
≤ 100 nM	≤ 500 nM					CNc1ncc(C#Cc2ccc(N3CCOCC3)cc2F)c2cc(NC(=O)C3CC3)ncc12 [Example 969, N-[5-[2-(2-fluoro-4-morpholino-phenyl)ethynyl]-8-(methylamino)-2,7-naphthyridin-3-yl]cyclopropanecarboxamide]
		≤ 100 nM			IC50 ([1]; IFNa-stimulated, read-out: Cellular_THP1_IFNa-pSTATS_TYK2): ≤ 500 nM	[2H]C([2H])([2H])Nc1ncc(-c2nc3cc(OC)ccc3o2)c2cc(NC(=O)[C@H]3C[C@H]3C)ncc12 (single isomer, unassigned) [Example 438]
≤ 100 nM	≤ 500 nM					CNc1ncc(C#Cc2ccc(C)cn2)c2cc(NC(=O)C3CC3)ncc12 [Example 659, N-(8-(methylamino)-5-((5-methylpyridin-2-yl)ethynyl)-2,7-naphthyridin-3-yl)cyclopropanecarboxamide]
≤ 100 nM	≤ 500 nM					CCn1nnc2ccc(C#Cc3cnc(NC)c4cnc(NC(=O)C5CC5)cc34)cc21 [Example 683, N-(5-((1-ethyl-1H-benzo[d][1,2,3]triazol-6-yl)ethynyl)-8-(methylamino)-2,7-naphthyridin-3-yl)cyclopropanecarboxamide]
	≤ 500 nM	≤ 100 nM				CNc1ncc(-c2nc3ccc(N4CCO[C@H](C)C4)cn3n2)c2cc(NC(=O)C3(F)CC3)ncc12 [Example 550, (R)-1-fluoro-N-(8-(methylamino)-5-(6-(2-methylmorpholino)-[1,2,4]triazolo[1,5-a]pyridin-2-yl)-2,7-naphthyridin-3-yl)cyclopropane-1-carboxamide]
			≤ 100 nM	> 500 nM		CNc1ncc(-c2ccncc2)c2cc(NC(=O)C3CC3)ncc12 [Example 9]
	≤ 500 nM	≤ 100 nM				CNc1ncc(-c2nc3cc(C)ccc3o2)c2cc(NC(=O)C3CC3)ncc12 [Example 207, N-(8-(methylamino)-5-(5-methylbenzo[d]oxazol-2-yl)-2,7-naphthyridin-3-yl)cyclopropanecarboxamide]
≤ 100 nM	> 500 nM					CNc1ncc(C#CC2CCOCC2)c2cc(NC(=O)C3CC3)ncc12 [Example 592, N-(8-(methylamino)-5-((tetrahydro-2H-pyran-4-yl)ethynyl)-2,7-naphthyridin-3-yl)cyclopropanecarboxamide]
			100 to 1000 nM	> 500 nM		CNc1nc(C)cc2cc(NC(=O)C3CC3)ncc12 [Example 163, N-(6-methyl-8-(methylamino)-2,7-naphthyridin-3-yl)cyclopropanecarboxamide]
	> 500 nM	≤ 100 nM				CNc1ncc(-c2nc3ccccc3o2)c2cc(NC(=O)C(C)C)ncc12 [Example 429, N-(5-(benzo[d]oxazol-2-yl)-8-(methylamino)-2,7-naphthyridin-3-yl)isobutyramide]
